*1 amine or outer side, *2 acyl side, *3 side chain or, on linkers, in order; H or OH if unused. Where a SMILES comes first, the peptide text is derived from it. Side-chain parts run from the residue outwards. The star is where a group is joined. C18 diacid = O=C(O)CCCCCCCCCCCCCCCCC(=O)*; γGlu = O=C(O)[C@H](CCC(=O)[*:2])N[*:1]; Isovaleryl = CC(C)CC(=O)*; Ahx = NCCCCCC(=O)O
Tests used:
Solubility determination = details: for Sol6: pH 6; for Sol7: pH 7
Method in brief: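 Shake-flask style: 10 mg/ml peptide (TFA salt), 0.1 M sodium diphosphate pH 6.4/7.0, 600 rpm, 2 h, RT; filter; dilute 1 mg/ml in 50% MeCN; RP-UPLC, 0–100% B over 2 min, 50 °C. Solubility = sample/control area ratio. Final pH recorded.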

[1] = target: T1, Human Neuropeptide Y2 Receptor (Homo sapiens, UniProt P49146); assay: Radioligand binding competition assay (RLB); details: Table 3, 125I-PYY(1-36) competition; read-out: Ki
T1 construct: purchased CHEMICON HTS066M
T1 sequence (P49146 1-381): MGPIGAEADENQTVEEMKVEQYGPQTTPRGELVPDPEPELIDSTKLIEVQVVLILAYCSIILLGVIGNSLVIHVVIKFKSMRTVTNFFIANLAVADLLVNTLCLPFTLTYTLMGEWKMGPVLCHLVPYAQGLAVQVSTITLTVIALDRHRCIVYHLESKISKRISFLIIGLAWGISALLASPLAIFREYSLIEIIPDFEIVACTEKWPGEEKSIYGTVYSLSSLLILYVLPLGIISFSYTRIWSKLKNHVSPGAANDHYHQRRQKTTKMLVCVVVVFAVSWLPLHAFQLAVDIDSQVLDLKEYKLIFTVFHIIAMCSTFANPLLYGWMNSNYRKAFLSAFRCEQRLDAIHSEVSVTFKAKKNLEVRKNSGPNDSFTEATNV
Method in brief: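 Competition binding used membranes expressing the receptor (0.5 μg protein/well) in 50 mM HEPES, 5 mM MgCl2, 1 mM CaCl2, pH 7.4 with 0.2% ovalbumin, incubated 2 h at room temperature with shaking. Bound radioligand was collected by filtration onto PEI-soaked GF/C filters and counted; IC50 from nonlinear sigmoidal fits.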

| Sol6 (Solubility determination) | Sol7 (Solubility determination) | Ki [1] | SMILES |
| --- | --- | --- | --- |
| 9.7 mg/mL | 9.6 mg/mL | 9.76 nM | CC(C)CC(=O)N[C@@H](C)C(=O)N1CCC[C@H]1C(=O)N[C@@H](CCC(=O)O)C(=O)N[C@@H](CCCCNC(=O)CCCCCNC(=O)CC[C@H](NC(=O)CCCCCCCCCCCCCCCCC(=O)O)C(=O)O)C(=O)N1CCC[C@H]1C(=O)N[C@@H](CCC(=O)O)C(=O)N[C@@H](CCC(=O)O)C(=O)N[C@@H](CC(=O)O)C(=O)N[C@@H](CCC(N)=O)C(=O)N[C@H](C(=O)N1CCC[C@H]1C(=O)N[C@@H](CCC(=O)O)C(=O)N[C@@H](CCC(=O)O)C(=O)N[C@@H](CC(C)C)C(=O)N[C@@H](CCC(N)=O)C(=O)N[C@@H](CCCNC(=N)N)C(=O)N[C@@H](Cc1ccc(O)cc1)C(=O)N[C@@H](Cc1ccc(O)cc1)C(=O)N[C@H](C(=O)N[C@@H](CO)C(=O)N[C@@H](CC(C)C)C(=O)N[C@@H](CCCNC(=N)N)C(=O)N[C@@H](Cc1c[nH]cn1)C(=O)N[C@@H](Cc1ccc(O)cc1)C(=O)N[C@@H](Cc1ccc(O)cc1)C(=O)N[C@@H](CC(N)=O)C(=O)N[C@@H](Cc1c[nH]c2ccccc12)C(=O)N[C@@H](CC(C)C)C(=O)N[C@H](C(=O)N[C@@H](CCCNC(=N)N)C(=O)N[C@@H](CCC(N)=O)C(=O)N[C@@H](CCCNC(=N)N)C(=O)N[C@@H](Cc1ccc(O)cc1)C(N)=O)[C@@H](C)O)C(C)C)[C@@H](C)O [Compound 144, N{alpha-4}-(3-methylbutanoyl)-N{epsilon-7}-(6-[(4S)-4-carboxy-4-(17-carboxyheptadecanamido)butanamido]hexanoyl)-[4A,7K,9E,12Q,13T,18Q,22V,28Y,30W,31L]-hPYY(4-36)] |
| 0.1 mg/mL | 9.4 mg/mL | 0.3 nM | CC(C)CC(=O)N[C@@H](C)C(=O)N1CCC[C@H]1C(=O)N[C@@H](CCC(=O)O)C(=O)N[C@@H](CCCCNC(=O)CCCCCNC(=O)CC[C@H](NC(=O)CCCCCCCCCCCCCCCCC(=O)O)C(=O)O)C(=O)N1CCC[C@H]1C(=O)N1CCC[C@H]1C(=O)N[C@@H](C)C(=O)N[C@@H](CC(=O)O)C(=O)N[C@@H](C)C(=O)N[C@H](C(=O)N1CCC[C@H]1C(=O)N[C@@H](CCC(=O)O)C(=O)N[C@@H](CCC(=O)O)C(=O)N[C@@H](CC(C)C)C(=O)N[C@@H](CCC(N)=O)C(=O)N[C@@H](CCCNC(=N)N)C(=O)N[C@@H](Cc1ccc(O)cc1)C(=O)N[C@@H](Cc1ccc(O)cc1)C(=O)N[C@H](C(=O)N[C@@H](CO)C(=O)N[C@@H](CC(C)C)C(=O)N[C@@H](CCCNC(=N)N)C(=O)N[C@@H](Cc1c[nH]cn1)C(=O)N[C@@H](Cc1ccc(O)cc1)C(=O)N[C@@H](Cc1ccc(O)cc1)C(=O)N[C@@H](CC(N)=O)C(=O)N[C@@H](Cc1c[nH]c2ccccc12)C(=O)N[C@@H](CC(C)C)C(=O)N[C@H](C(=O)N[C@@H](CCCNC(=N)N)C(=O)N[C@@H](CCC(N)=O)C(=O)N[C@@H](CCCNC(=N)N)C(=O)N[C@@H](Cc1ccc(O)cc1)C(N)=O)[C@@H](C)O)C(C)C)[C@@H](C)O [Compound 30, N{alpha-4}-(3-methylbutanoyl)-N{epsilon-7}-(6-[(4S)-4-carboxy-4-(17-carboxyheptadecanamido)butanamido]hexanoyl)[4A,7K,9P,10A,13T,18Q,22V,28Y,30W,31L]-hPYY(4-36)] (Isovaleryl-APEK([Ahx-γGlu-C18 diacid])PPADATPEELQRYYVSLRHYYNWLTRQRY-NH2) |
